Source: patent US9243009B2, “Phosphate ester compound of hydroxy acid substituted phenol ester, preparation method and medical use thereof” (West China Hospital, Sichuan University, priority 2010, dated 2016)

What was measured:
[1] = tested on: Kunming mice; settings: tail vein injection; for Median effective dose (ED50): disappearance of FRR; for disappearance time of FRR (onset time) / recovery time (recovery of FRR): during the determination of ED50; for anesthetic effect: in words
Description: Median effective doses (ED50) of propofol hydroxybutyrate phosphate disodium salt and Diprivan™ were determined by the up-and-down method. In the test, the mice were injected with the drugs through the tail veins, with the disappearance of the forepaw righting reflex (FRR) of the mice as a judgment index of the end point of anesthesia; the recovery of FRR of the mice as an index of recovery from anesthesia.
In the test, the mice were injected with the drugs through the tail veins, with the disappearance of the forepaw righting reflex (FRR) of the mice as a judgment index of the end point of anesthesia; the recovery of FRR of the mice as an index of recovery from anesthesia.

[2] = in words, prior-art prodrug of WO200213810; cited from earlier work
[3] = in words, prior-art prodrug of WO200213810; cited from earlier work; remark: listed apart in the source

Compound	Median effective dose (ED50) [1] [mg/kg]	disappearance time of FRR (onset time) [1] [s]	recovery time (recovery of FRR) [1] [s]	anesthetic effect [1]	water solubility [2]	stability in aqueous solution [3]
propofol w-hydroxybutyrate phosphate disodium salt	130	150.6 ± 42.1	480.6 ± 124.3	definite and reversible anesthetic effect		
propofol w-hydroxyvalerate phosphate disodium salt	152	180.8 ± 45.6	500.1 ± 114.6	definite and reversible anesthetic effect		
CC(C)c1cccc(C(C)C)c1OC(=O)CCC(=O)[O-].[Na+] [propofol succinic acid monoester sodium salt]					high water-solubility	unstable in aqueous solution
